Source: patent US4016042A, “Substrate for the quantitative determination of enzymes” (Pentapharm A.G., priority 1974, dated 1977)
Counter-ions that a name gives are not always drawn. Residues, ends and D or L forms follow the SMILES beside them. *: point of attachment. Hydrocinnamoyl = O=C(CCc1ccccc1)*; pNA = O=[N+]([O-])c1ccc(N*)cc1; Bz = O=C(c1ccccc1)*

Key:
Type in all cases: biochemical
plasmin [1] = biological target: T1, plasmin (Homo sapiens, UniProt P00747); experiment: Activity of human plasmin measured with the substrates at constant substrate and enzyme concentrations; settings: split product
Experimental: (§1) HCl, were used for the quantitative determination of various enzymes in blood plasma. The determination was carried out by taking advantage of the fact that the split product NH2 -R^2 formed by enzymatic hydrolysis of the substrate has a UV spectrum which differs from that of the substrate and is shifted toward higher wave lengths. Thus, N^α-Bz-Pro-Phe-Arg-pNA^.
(§2) The degree of the enzymatic hydrolysis of the substrate, which is proportional to the quantity of p-nitroaniline formed, can be easily determined by spectrophotometric measurement at 405 nm. […] The conditions are practically the same for the other substrates carrying a p-nitroanilino group as a chromogenic group. The spectrophotometric measurement was, therefore, carried out in all cases at 405 nm.

papain = biological target: T2, papain (Carica papaya, UniProt P00784); experiment: Activity of papain measured with substrates at a constant substrate concentration
T2 construct: from tissue; host or cells: latex of the Carica papaya fruit
T2 sequence (P00784 134-345): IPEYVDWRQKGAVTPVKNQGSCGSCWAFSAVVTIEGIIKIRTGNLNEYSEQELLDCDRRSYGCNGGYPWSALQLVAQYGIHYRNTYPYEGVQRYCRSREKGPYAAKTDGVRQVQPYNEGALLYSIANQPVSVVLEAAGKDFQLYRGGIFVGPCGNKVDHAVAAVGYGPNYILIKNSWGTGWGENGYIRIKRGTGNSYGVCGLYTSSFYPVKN
From the text: (§3) The degree of the enzymatic hydrolysis of the substrate, which is proportional to the quantity of p-nitroaniline formed, can be easily determined by spectrophotometric measurement at 405 nm. The presence of an excess of substrate exerts no disturbing effect on the measurement at 405 nm. The conditions are practically the same for the other substrates carrying a p-nitroanilino group as a chromogenic group. The spectrophotometric measurement was, therefore, carried out in all cases at 405 nm.
(§4) Activity of papain and prothrombin activator, measured by means
(§5) Quantity in nm of p-nitroaniline (pNA) re-
(§6) leased within 1 minute by 0.1 milli-Anson
(§7) unit^3) of papain and 10 μg of a pure fraction
^1) Papain is a cysteine-protease isolated from the latex of the gree
^3) One Anson unit is the enzyme quantity which releases 1 mmole of
folin-positive amino acids (calculated as tyrosine) in 1 minute (cf. Art.

plasma kallikrein [2] = biological target: T3, plasma kallikrein (Homo sapiens, UniProt P03952); experiment: Activity of plasma kallikrein measured with the substrates at constant substrate and enzyme concentrations; settings: split product
Experimental: as §1, §2

thrombin = thrombin (Homo sapiens, UniProt P00734); experiment: Km and vmax determination with substrate (Lineweaver-Burk), thrombin; settings: NIH units per 1 substrate unit
Experimental: (§8) As is evident from equation (2) constants Km and k3 determine the activity of the enzyme substrate for a given enzyme. For determining these constants the following procedure is followed:
(§9) The enzyme and the substrate are mixed in a buffer solution, and the reaction is followed spectrophotometrically for 2 to 30 minutes. The concentration of substrate [S] is varied, whereas the enzyme concentration [E] is kept constant. If the extinction (OD) (= optical density) is plotted in a co-ordinate system as a function of time, a curve is obtained the tangent of which (difference in extinction per minute, Δ OD/minute, from which the quantity in μmoles of pNA/min (v) can be calculated) at time zero corresponds to the ideal course of the hydrolysis. By means of this tangent the initial rate of the hydrolysis can be determined.
(§10) If 1/v is plotted against 1/[S], a Lineweaver-Burk diagram (cf. "Kurzes Lehrbuch der Biochemie" by P. KARSON, Georg Thieme-Verlag, Stuttgart, 1967, p. 70) is obtained from which vmax and Km can be determined graphically.
(§11) Km and k3 = vmax /E were determined with N^α-Bz-Pro-Phe-Arg-pNA^. HCl (i.e. the substrate prepared according to Example 1) for plasma kallikrein, trypsin, plasmin and thrombin.

plasmin [3] = biological target: T1, plasmin; experiment: Km and vmax determination with substrate (Lineweaver-Burk), plasmin; settings: casein units per 1 substrate unit
Experimental: as §8, §9, §10, §11

trypsin = biological target: T4, trypsin (Bos taurus, UniProt P00760); experiment: Km and vmax determination with substrate (Lineweaver-Burk), trypsin; settings: NF units per 1 substrate unit
T4 sequence (P00760 24-246): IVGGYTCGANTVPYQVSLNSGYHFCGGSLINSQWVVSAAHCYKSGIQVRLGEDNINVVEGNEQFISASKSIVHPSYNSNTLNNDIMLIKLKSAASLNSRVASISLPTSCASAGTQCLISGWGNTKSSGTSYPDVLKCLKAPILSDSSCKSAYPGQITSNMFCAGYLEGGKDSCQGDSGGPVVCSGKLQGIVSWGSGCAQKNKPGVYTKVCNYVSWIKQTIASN
Experimental: as §8, §9, §10, §11

[4] = biological target: T5, prothrombin activator from venom of the snake Echis carinatus (Echis carinatus, UniProt Q90495); experiment: Activity of prothrombin activator measured with substrates at a constant substrate concentration
T5 sequence (Q90495 191-616): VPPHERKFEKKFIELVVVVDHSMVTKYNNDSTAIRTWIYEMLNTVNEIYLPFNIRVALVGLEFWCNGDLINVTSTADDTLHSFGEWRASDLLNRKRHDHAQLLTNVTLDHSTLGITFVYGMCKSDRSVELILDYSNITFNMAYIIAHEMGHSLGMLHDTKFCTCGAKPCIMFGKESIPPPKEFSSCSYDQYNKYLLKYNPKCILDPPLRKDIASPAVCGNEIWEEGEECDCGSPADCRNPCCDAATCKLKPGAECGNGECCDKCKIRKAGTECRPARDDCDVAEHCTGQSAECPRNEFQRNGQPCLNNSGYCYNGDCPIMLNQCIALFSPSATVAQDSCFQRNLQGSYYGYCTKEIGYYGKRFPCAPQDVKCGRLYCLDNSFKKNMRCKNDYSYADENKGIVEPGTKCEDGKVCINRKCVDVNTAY
From the text: as §3, §4, §5, §6, §7
of the prothrombin activator from venom of
the snake Echis carinatus
^2) The prothrombin activator is a serine-protease which was isolated
from the venom of the snake Echis carinatus.

plasma kallikrein [5] = biological target: T3, plasma kallikrein; experiment: Km and vmax determination with substrate (Lineweaver-Burk), plasma kallikrein; settings: common units per 1 substrate unit
Experimental: as §8, §9, §10, §11

T3 sequence (P03952 391-638 limits assumed, species assumed): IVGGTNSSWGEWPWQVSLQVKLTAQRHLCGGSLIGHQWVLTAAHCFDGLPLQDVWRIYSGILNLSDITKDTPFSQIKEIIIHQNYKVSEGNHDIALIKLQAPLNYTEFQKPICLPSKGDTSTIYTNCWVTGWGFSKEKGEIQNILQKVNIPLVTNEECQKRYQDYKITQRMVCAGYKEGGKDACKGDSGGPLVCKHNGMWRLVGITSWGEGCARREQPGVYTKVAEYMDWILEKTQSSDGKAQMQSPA
T3 sequence (P03952 20-390 partner limits assumed, species assumed): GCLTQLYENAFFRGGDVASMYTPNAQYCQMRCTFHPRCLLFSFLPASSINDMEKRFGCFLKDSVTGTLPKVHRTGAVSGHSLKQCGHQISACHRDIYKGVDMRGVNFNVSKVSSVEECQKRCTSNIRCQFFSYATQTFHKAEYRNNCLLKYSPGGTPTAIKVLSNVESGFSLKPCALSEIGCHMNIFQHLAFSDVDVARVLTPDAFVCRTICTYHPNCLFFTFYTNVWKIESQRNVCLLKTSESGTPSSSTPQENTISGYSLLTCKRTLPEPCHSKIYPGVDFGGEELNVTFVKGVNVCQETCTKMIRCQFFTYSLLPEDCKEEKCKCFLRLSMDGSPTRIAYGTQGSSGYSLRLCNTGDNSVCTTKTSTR
T1 sequence (P00747 581-810 limits assumed): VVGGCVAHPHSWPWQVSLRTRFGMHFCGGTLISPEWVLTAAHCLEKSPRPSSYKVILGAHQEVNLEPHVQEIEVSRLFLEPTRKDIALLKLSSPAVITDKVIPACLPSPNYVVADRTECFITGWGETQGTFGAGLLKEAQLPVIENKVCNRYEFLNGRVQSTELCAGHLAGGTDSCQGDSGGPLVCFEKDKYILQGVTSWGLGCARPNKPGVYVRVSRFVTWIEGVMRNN
T1 sequence (P00747 97-580 partner limits assumed): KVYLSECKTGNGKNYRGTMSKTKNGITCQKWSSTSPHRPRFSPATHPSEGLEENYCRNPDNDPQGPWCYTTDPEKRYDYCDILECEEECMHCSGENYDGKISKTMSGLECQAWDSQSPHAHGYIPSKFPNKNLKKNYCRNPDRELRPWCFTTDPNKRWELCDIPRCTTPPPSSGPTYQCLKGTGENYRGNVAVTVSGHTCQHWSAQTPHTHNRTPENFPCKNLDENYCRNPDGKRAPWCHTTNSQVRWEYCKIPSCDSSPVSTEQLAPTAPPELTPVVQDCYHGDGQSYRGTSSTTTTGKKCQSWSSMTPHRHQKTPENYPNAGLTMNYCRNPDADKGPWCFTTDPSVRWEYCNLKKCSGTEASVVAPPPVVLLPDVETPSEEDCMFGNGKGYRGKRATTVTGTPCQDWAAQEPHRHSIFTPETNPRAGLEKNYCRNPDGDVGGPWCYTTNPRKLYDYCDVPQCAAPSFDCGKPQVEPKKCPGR

N=C(N)NCCC[C@H](NC(=O)[C@H](Cc1ccccc1)NC(=O)[C@@H]1CCCN1C(=O)CCc1ccccc1)C(=O)Nc1ccc([N+](=O)[O-])cc1 [Substrate VII, N^α -3-Phenyl-propionyl-Pro-Phe-Arg-pNA.HCl] (Hydrocinnamoyl-Pro-Phe-Arg-pNA)
Quantity of p-nitroaniline (pNA), β-naphthylamine (2-NA) or 4-methoxy-β-naphthylamine (4-MeO-2-NA) released within 1 minute by one C unit of human plasmin (plasmin [1]): 144.0 nm
Quantity of p-nitroaniline (pNA) released within 1 minute by 0.1 milli-Anson unit of papain (papain): 24.9 nm
Quantity of p-nitroaniline (pNA), β-naphthylamine (2-NA) or 4-methoxy-β-naphthylamine (4-MeO-2-NA) released within 1 minute by 1 BAEE unit of plasma kallikrein (plasma kallikrein [2]): 256.0 nm

N=C(N)NCCC[C@H](NC(=O)[C@H](Cc1ccccc1)NC(=O)[C@@H]1CCCN1C(=O)c1ccccc1)C(=O)Nc1ccc([N+](=O)[O-])cc1 [Substrate I, N^α-Bz-Pro-Phe-Arg-pNA^. HCl] (Bz-Pro-Phe-Arg-pNA)
relation between substrate units and common units (1 U = x) (thrombin): 117600 NIH
Quantity of p-nitroaniline (pNA), β-naphthylamine (2-NA) or 4-methoxy-β-naphthylamine (4-MeO-2-NA) released within 1 minute by one C unit of human plasmin (plasmin [1]): 152.0 nm
relation between substrate units and common units (1 U = x) (plasmin [3]): 518 C U
relation between substrate units and common units (1 U = x) (trypsin): 12000 NF
Quantity of p-nitroaniline (pNA) released within 1 minute by 10 μg of a pure fraction of the prothrombin activator from venom of Echis carinatus [4]: 13.1 nm
relation between substrate units and common units (1 U = x) (plasma kallikrein [5]): 4.8 BAEE U
Quantity of p-nitroaniline (pNA), β-naphthylamine (2-NA) or 4-methoxy-β-naphthylamine (4-MeO-2-NA) released within 1 minute by 1 BAEE unit of plasma kallikrein (plasma kallikrein [2]): 135.5 nm
